Source: publication PMC10831786 (Virus Research, 2024)
Where a name gives a salt, the structure may show the parent alone.

Columns and labels:
[1] = target: sodium channel; set-up: method as in Lemmens-Gruber et al., 1997; settings: ref Lemmens-Gruber et al., 1997; read-out: Kd, sodium channel reduction; cited from earlier work
[2] = MTS assay, growth inhibition and toxicity in non-infected Vero E6 cells; format: cell-based, African green monkey; settings: African green monkey, non-infected Vero E6 cells, MTS, 72 h; read-out: Fifty percent effect (CC50) in non-infected Vero E6
Procedure: Detailed methods are provided in Supplementary Information.
Vero E6 and BEC-hACE2 cells were grown to 70-80% density in their maintenance media and exposed to various concentrations of ipecac alkaloids (0.0125 – 200 µM) under standard culture conditions for 48-72 h and 24 h, respectively. Controls with varying amounts of DMSO and no DMSO were included also. Vero E6 cells were incubated with drugs in 2% FBS-EMEM, while BEC-HACE2 cells were grown and treated in complete PCS-300-03 medium with supplements. Similar treatments were also conducted using fully confluent non-growing BEC-hACE2 cells. At the end of the exposure period, MTS reagent (Promega G3580) was added at 1/5th of the medium volume and color was allowed to develop by incubation of the plates for an hour in a cell culture incubator. To stop reactions, SDS was added to a final concentration of 2% and optical density of samples was measured at 450 or 490 nm, depending on the model of spectrophotometer (PharmaciaBiotech, NJ, USA; UV spectrophotometer, model Ultrospec2000) or plate reader (Molecular Devices, CA, USA; model Filter Max F5 Multi-mode microplate reader) available at the time of experiment.

[3] = tested on: Entamoeba histolytica; settings: in vitro; ref Burchard and Mirelman, 1988; cited from earlier work

## CC[C@H]1CN2CCc3cc(OC)c(OC)cc3[C@@H]2C[C@@H]1C[C@H]1NCCc2cc(OC)c(OC)cc21 [Emetine, 2H-Benzoaquinolizine, 3-ethyl-1,3,4,6,7,11b-hexahydro-9,10-dimethoxy-2-(1R)-1,2,3,4-tetrahydro-6,7-dimethoxy-1-isoquinolinylmethyl-, dihydrochloride, (2S,3R,11bS)-, reference compound]
[1]
  Kd: 15 µM
[2]
  CC50 at 72 h: 1.52 µM
[3]
  Concentration required to inhibit growth of Entamoeba histolytica: 12 to 25 µM
